Patent US20080279957A1, “Immunomodulating compositions from bile” (Lorus Therapeutics Inc., priority 2000, published 2008)
Values joined by “and” are separate entries in the source; they are usually repeats but may differ in a detail not shown here. Equal entries are not always repeated.

Experiments:
Format in all cases: cell-based
human PBMN [1] = test: TNF release by PBMN with LPS plus composition in the presence of Polymyxin
Experimental: (§1) In the studies of TNF, whole blood was drawn from 5 healthy subjects into heparinized Vacutainer tubes. Peripheral blood mononuclear cells (PBMNs) were isolated by gradient centrifugation on Ficoll-Hypaque (Pharmacia). The PBMN were washed twice with phosphate buffered saline (PBS), counted and resuspended in RPMI 1640 culture medium (Gibco Labs) at a concentration of 10^6 cells/0.5 ml. These cells were cultured in 24 well, flat-bottomed tissue culture plates (Falcon, Becton, Dickinson). […] The total volume was then made up to 1 ml/well with RPMI. As control, PBS was used instead of composition. The cells were cultured for 2, 6, 24, 48 and 72 hours at 37° C. in a humidified 5% CO2 incubator. At the end of each incubation period, the cells were harvested and cell free culture fluids were obtained by centrifugation at 9000 rpm for 10 minutes. The samples were then stored at −70° C. until ELISA for cytokines was carried out (within 2 weeks).
Polymyxin inhibits the action of endotoxin on leukocytes. […] In the absence of polymyxin, LPS induces 517 pg/ml of TNF-α, whereas in the presence of Polymyxin 11 pg/ml of TNF-α is released.
Initially, the effect of different fractions were examined in the presence of Polymyxin. […] Batch BO213 was 369 and high. […] Therefore, whether the hyperosmolarity of the samples was inhibiting or enhancing TNF-α release was investigated as set out below.

human PBMN [2] = test: LPS-induced release of TNF by PBMN, LPS plus composition or fractions (Example 9)
Experimental: as §1, with “As control, PBS was used instead of composition.” left out
The effect of different volumes of the compositions of the invention in inhibiting LPS stimulated release of TNF was examined.
This separation technique is used for small polar substances. […] The precipitate and the soluble fraction were separated. Both the precipitate and soluble fraction were taken to dryness by lyophilization. The precipitate and soluble fraction were reconstituted in aqueous solutions and both analyzed by RP-HPLC and tested for TNF-α releasing activity.
In the next series of experiments, the activity of the precipitate and supernatants were evaluated after their separation by C18 RP-HPLC. The precipitate and supernatant were collected as 2 pools from RP-HPLC: 2 to 21 min and 21 to 46 min.

human PBMN [3] = test: Direct TNF release from PBMN by composition in the absence of LPS (ELISA); settings: 24 hrs; seven patient samples
Experimental: as §1, with “Peripheral” for “In the studies of TNF, whole blood was drawn from 5 healthy subjects into heparinized Vacutainer tubes. Peripheral”
The direct stimulatory effect of Batch B0203 was tested at different volumes and then at different times.
Batch B0203 stimulated maximum TNF-release at about 100 μl (Table 16). […] Thus, the composition was able to stimulate TNF-release on its own, that is in the absence of LPS and the curves for TNF-release were similar to when the composition and LPS were combined.

human PBMN [4] = test: LPS-stimulated release of cytokines other than TNF by PBMN, LPS plus composition; settings: LPS (50 ng/ml) alone
Experimental: as §1
Experiments were performed to determine whether the composition of the invention would impair LPS-stimulated release. […] The effects on the other cytokines IL-6, IL-8, IFN-gamma and GM-CSF were not as marked. However, in no instance did the compositions tested augment the effect of LPS stimulated release of cytokines.

[5] = LPS 50 ng, first line printed LPS (1) (Table 31)
[6] = LPS 50 ng, second line printed LPS (1) (Table 31)

Substance: Lipopolysaccharide [LPS]
- TNF Released Total (human PBMN [1]; Polymyxin 50.000 units/ml, composition and fractions 200 μl, LPS 50 ng/10 μl, 2 patients (Table 21)): 31 ± 31 pg/mL
- TNF Released −LPS (human PBMN [1]; Polymyxin 50,000 units/ml, LPS 50 ng/10 μl, composition 200 μl (Table 19)): 0 pg/mL
- TNF Released Total (human PBMN [1]; Polymyxin 50,000 units/ml, LPS 50 ng/10 μl, composition 200 μl, 8 patients (Table 19)): 11 pg/mL and 11 ± 7 pg/mL
- TNF Released Total (human PBMN [1]; Polymyxin 50,000 units/ml, composition and fractions 200 μl, LPS 50 ng/10 μl, 5 patients (Table 20)): 40 ± 25 pg/mL
- TNF Released −LPS (human PBMN [1]; Polymyxin, 200 μl, 2 patients (Table 21)): 0 pg/mL
- TNF Released −LPS (human PBMN [1]; Polymyxin, 200 μl, 5 patients (Table 20)): 0 pg/mL
- TNF Released (human PBMN [2]; 1X 199 Medium, LPS 10 ng/10 μl, 1 patient): 124 pg/mL
- TNF Released (human PBMN [2]; 1X 199 Medium, LPS 50 ng/10 μl, 1 patient): 155 pg/mL
- TNF Released (human PBMN [2]; 1X 199 Medium, LPS 100 ng/10 μl, 1 patient): 147 pg/mL
- TNF Released (human PBMN [2]; 1X 199 Medium, LPS 200 ng/10 μl, 1 patient): 213 pg/mL
- TNF Released (human PBMN [2]; 1X 199 Medium, LPS 1000 ng/10 μl, 1 patient): 404 pg/mL
- TNF Released (human PBMN [2]; 1640 RPMI Medium, LPS 50 ng/10 μl, 1 patient): 356 pg/mL
- TNF Released (human PBMN [2]; 1640 RPMI Medium, LPS 100 ng/10 μl, 1 patient): 323 pg/mL
- TNF Released (human PBMN [2]; 1640 RPMI Medium, LPS 200 ng/10 μl, 1 patient): 455 pg/mL
- TNF Released (human PBMN [2]; 1640 RPMI Medium, LPS 1000 ng/10 μl, 1 patient): 558 pg/mL
- TNF Released by LPS (50 ng/ml) (human PBMN [2]; 2 hr): 697 pg/mL and 697 ± 94 pg/mL
- TNF Released by LPS (50 ng/ml) (human PBMN [2]; 24 hr): 800 ± 222 pg/mL
- TNF Released by LPS (50 ng/ml) (human PBMN [2]; 48 hr): 170 ± 149 pg/mL
- TNF Released by LPS (50 ng/ml) (human PBMN [2]; 72 hr): 132 ± 147 pg/mL
- TNF Released -LPS (human PBMN [2]; LPS 50 ng (Table 29)): 0 pg/mL
- TNF Released -LPS (human PBMN [2]; LPS 50 ng (Table 30)): 0 pg/mL
- TNF Released −LPS (human PBMN [2]; LPS 50 ng/10 μl (Table 24)): 0 pg/mL
- TNF Released -LPS (human PBMN [2]; LPS 50 ng/10 μl (Table 25)): 0 pg/mL
- TNF Released -LPS (human PBMN [2]; LPS 50 ng/10 μl (Table 26)): 0 pg/mL
- TNF Released Total (human PBMN [2]; LPS 50 ng/10 μl, 1X 199 Medium, 2 patients (Table 26)): 136 ± 38 pg/mL
- TNF Released Total (human PBMN [2]; LPS 50 ng/10 μl, 1X 199 Medium, 5 patients (Table 24)): 161 ± 50 pg/mL
- TNF Released Total (human PBMN [2]; LPS 50 ng/10 μl, 199 Medium, 2 patients (Table 25)): 194 ± 93 pg/mL
- TNF Released Total (human PBMN [2]; LPS 50 ng, 199 Medium, 5 patients (Table 29)): 322 ± 115 pg/mL
- TNF Released Total (human PBMN [2]; LPS 50 ng, 199 Medium, 5 patients (Table 30)): 99 ± 43 pg/mL
- TNF Released -LPS (human PBMN [2]; [5]): 0 pg/mL
- TNF Released Total (human PBMN [2]; [5]): 136 ± 62 pg/mL
- TNF Released -LPS (human PBMN [2]; [6]): 0 pg/mL
- TNF Released Total (human PBMN [2]; [6]): 81 ± 25 pg/mL
- TNF Released (human PBMN [2]; LPS (50 ng/ml) alone, Table 10): 915 ± 763
- TNF Released −LPS (human PBMN [2]; absence of Polymyxin, 200 μl, 5 patients (Table 22)): 0 pg/mL
- TNF Released Total (human PBMN [2]; absence of Polymyxin, composition and fractions 200 μl, LPS 50 ng/10 μl, 5 patients (Table 22)): 219 pg/mL
- TNF Released −LPS (human PBMN [2]; absence of Polymyxin, footnote 200 μl, 3 patients (Table 23)): 0 pg/mL
- TNF Released Total (human PBMN [2]; absence of Polymyxin, footnote: composition and fractions 200 μl, LPS 50 ng/10 μl, 3 patients (Table 23)): 195 ± 72 pg/mL
- TNF Released −LPS (human PBMN [2]; no additive, LPS 50 ng/10 μl, composition 200 μl (Table 19)): 0 pg/mL
- TNF Released Total (human PBMN [2]; no additive, LPS 50 ng/10 μl, composition 200 μl, 3 patients (Table 19)): 517 pg/mL and 517 ± 118 pg/mL
- TNF Released (human PBMN [3]): 1501 ± 284 pg/mL
- GM-CSF released (human PBMN [4]): 54 ± 65
- IFN-γ released (human PBMN [4]): 30 ± 24
- IL-6 released (human PBMN [4]): 2320 ± 1081
- IL-8 released (human PBMN [4]): 118 ± 62 ng/mL
- IL-16 released (human PBMN [4]): 1314 ± 723
- IL-1α released (human PBMN [4]; six patients): 129 ± 135
